Test results as given in ChEMBL document CHEMBL1140455, “On the search of new I2-IBS aliphatic ligands: bis-guanidino carbonyl derivatives” (Bioorg Med Chem Lett, 2007).

Experiment: Displacement of [3H]2-BFI from I2-IBS in human frontal cortex membranes
Format: cell membranes, Membrane

| SMILES | Log Ki |
| --- | --- |
| N=C(N)NC(=O)CCCCCCCCC(=O)NC(=N)N | -6.11 |
| N=C(N)NC(=O)CCCCCCCCCC(=O)NC(=N)N | -5.2 |
| N=C(N)NC(=O)CCCCCCCCCCCC(=O)NC(=N)N | -5.06 |
| N=C(N)NC(=O)CCCCCCCCCCCCC(=O)NC(=N)N | -5.91 |
| N=C(N)NC(=O)CCCCCCCCCCCCCCC(=O)NC(=N)N | -5.7 |
| N=C(N)NC(=O)CCCCCCCCCCC(=O)NC(=N)N | -5.69 |
| N=C(N)NCCCCCCCCCCCCNC(=N)N | -7.48 |
| c1ccc2c(c1)OCC(C1=NCCN1)O2 (stereo not drawn) [IDAZOXAN] | -7.43 |
